What follows are compounds tested against T1, STING (Homo sapiens, UniProt Q86WV6, G230A/H232R/R293Q/R71H) (assay: Reporter gene expression assay in THP1-Dual cells (IRF pathway Lucia luciferase, 2',3'-cGAMP stimulation)). Conditions: 10 min preincubation, 5 μM 2',3'-cGAMP, 20 hr, IRF reporter QUANTI-Luc, read-out: THP-1 (HAQ) Activity.
T1 construct: host or cells: THP1-Dual cells (human THP-1 monocyte line with Lucia/SEAP reporters)
Assay type: cell-based
Procedure, shortened: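 THP1-Dual cells preincubated 10 min with compound, then stimulated with 5 μM 2′,3′-cGAMP for 20 hr. Secreted Lucia luciferase (IRF reporter) measured in supernatant by luminescence; IC50 reported as ranges (A ≤1 μM, B >1–≤10 μM, C >10 μM).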

T1 sequence (Q86WV6 whole entry R71H/G230A/H232R/R293Q): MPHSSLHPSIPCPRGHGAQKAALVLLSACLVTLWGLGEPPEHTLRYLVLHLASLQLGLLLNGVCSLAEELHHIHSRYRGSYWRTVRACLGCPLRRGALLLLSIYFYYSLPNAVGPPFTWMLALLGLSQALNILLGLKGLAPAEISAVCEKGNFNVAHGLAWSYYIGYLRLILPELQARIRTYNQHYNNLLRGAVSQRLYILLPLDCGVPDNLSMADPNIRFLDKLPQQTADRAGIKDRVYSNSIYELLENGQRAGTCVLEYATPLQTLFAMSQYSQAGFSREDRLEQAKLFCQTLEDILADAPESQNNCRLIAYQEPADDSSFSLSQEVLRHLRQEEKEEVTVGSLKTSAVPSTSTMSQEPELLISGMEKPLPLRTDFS

Structure (SMILES)	IC50
O=C(Nc1ccc2c(c1)N(Cc1ccccc1)C(=O)CS2)Nc1cccc2cc[nH]c12 [Example 19, 1-(4-benzyl-3-oxo-3,4-dihydro-2H-benzo[b][1, 4]thiazin-6-yl)-3-(1H-indol-7-yl)urea]	1 to 10 µM
O=C(Nc1ccncc1)Nc1ccc2c(c1)N(Cc1ccccc1)C(=O)CS2 [Example 6, 1-(4-benzyl-3-oxo-3,4-dihydro-2H-benzo[b][1, 4]thiazin-6-yl)-3-(pyridin-4-yl)urea]	1 to 10 µM
N#CC1COc2cc(NC(=O)Nc3ccc4cc[nH]c4c3)ccc2N1Cc1ccccc1 (centres unmarked) [Example 186, 1-(4-benzyl-3-cyano-3,4-dihydro-2H-benzo[b][1,4]oxazin-7-yl)-3-(1H-indol-6-yl)urea]	1 to 10 µM
NC(=O)c1ccccc1CN1C(=O)COc2cc(NC(=O)Nc3ccc4cc[nH]c4c3)ccc21 [Example 144, 2-((7-(3-(1H-indol-6-yl)ureido)-3-oxo-2,3-dihydro-4H-benzo[b][1, 4]oxazin-4-yl)methyl) benzamide]	1 to 10 µM
CC1(C)Oc2cc(NC(=O)Nc3ccc4cc[nH]c4c3)ccc2N(Cc2ccccc2)C1=O [Example 90, 1-(4-benzyl-2,2-dimethyl-3-oxo-3,4-dihydro-2H-benzo[b][1, 4]oxazin-7-yl)-3-(1H-indol-6-yl)urea]	1 to 10 µM
O=C(Nc1ccc2c(c1)OCCN2c1ccccc1)Nc1ccc2cc[nH]c2c1 [Example 181, 1-(1H-indol-6-yl)-3-(4-phenyl-3,4-dihydro-2H-benzo[b][1,4]oxazin-7-yl)urea]	≤ 1 µM
O=C(Nc1ccc2c(c1)OCC(=O)N2CC1CCCO1)Nc1ccc2cc[nH]c2c1 (centres unmarked) [Example 146, 1-(1H-indol-6-yl)-3-(3-oxo-4-((tetrahydro-furan-2-yl)methyl)-3,4-dihydro-2H-benzo[b][1, 4]oxazin-7-yl)urea]	1 to 10 µM
O=C(Nc1ccc2c(c1)N(Cc1ccccc1)C(=O)CS2)Nc1ccc2cc[nH]c2c1 [Example 1, 1-(4-Benzyl-3-oxo-3,4-dihydro-2H-benzo[b][1,4]thiazin-6-yl)-3-(1H-indol-6-yl)urea]	1 to 10 µM
O=C(Cc1ccc2cc[nH]c2c1)Nc1ccc2c(c1)N(Cc1ccccc1)C(=O)CS2 [Example 47, N-(4-Benzyl-3-oxo-3,4-dihydro-2H-benzo[b][1,4]thiazin-6-yl)-2-(1H-indol-6-yl)acetamide]	1 to 10 µM
O=C(Nc1ccc2c(c1)N(Cc1ccccc1)CCO2)Nc1ccc2cc[nH]c2c1 [Example 56, 1-(4-benzyl-3,4-dihydro-2H-benzo[b][1, 4]oxazin-6-yl)-3-(1H-indol-6-yl)urea]	1 to 10 µM
O=C1CSc2ccc(-c3nnc(Cc4ccccc4)[nH]3)cc2N1Cc1c(F)cccc1Cl [Example 45]	1 to 10 µM
COC(=O)c1ccccc1CN1C(=O)COc2cc(NC(=O)Nc3ccc4cc[nH]c4c3)ccc21 [Example 140, methyl 2-((7-(3-(1H-indol-6-yl)ureido)-3-oxo-2,3-dihydro-4H-benzo[b][1, 4]oxazin-4-yl)methyl) benzoate]	1 to 10 µM
O=C(Nc1ccc2c(c1)OCC(=O)N2Cc1ccon1)Nc1ccc2cc[nH]c2c1 [Example 164, 1-(1H-indol-6-yl)-3-(4-(isoxazol-3-ylmethyl)-3-oxo-3,4-dihydro-2H-benzo[b][1, 4]oxazin-7-yl)urea]	1 to 10 µM
O=C(Nc1ccc2c(c1)OCC(=O)N2Cc1c(F)cccc1F)Nc1ccc2cc[nH]c2c1 [Example 96, 1-(4-(2,6-difluorobenzyl)-3-oxo-3,4-dihydro-2H-benzo [b][1, 4]oxazin-7-yl)-3-(1H-indol-6-yl)urea]	> 10 µM
O=C(Nc1ccc2c(c1)N(Cc1ccccc1)C(=O)CS2)c1ccc2cc[nH]c2c1 [Example 55, N-(4-benzyl-3-oxo-3,4-dihydro-2H-benzo[b][1,4]thiazin-6-yl)-1H-indole-6-carboxamide]	1 to 10 µM
O=C(Nc1ccc2c(c1)OCC(=O)N2Cc1nc(-c2ccccc2)no1)Nc1ccc2cc[nH]c2c1 [Example 121, 1-(1H-indol-6-yl)-3-(3-oxo-4-((3-phenyl-1,2,4-oxadiazol-5-yl)methyl)-3,4-dihydro-2H-benzo[b][1,4]oxazin-7-yl)urea]	1 to 10 µM
O=C(Nc1ccc2c(c1)OCC(=O)N2CCc1ccccc1Cl)Nc1ccc2cc[nH]c2c1 [Example 110, 1-(4-(2-chlorophenethyl)-3-oxo-3,4-dihydro-2H-benzo[b][1,4]oxazin-7-yl)-3-(1H-indol-6-yl)urea]	1 to 10 µM
O=C(Nc1ccc2c(c1)OCC(=O)N2Cc1ncno1)Nc1ccc2cc[nH]c2c1 [Example 163, 1-(4-((1,2,4-oxadiazol-5-yl)methyl)-3-oxo-3,4-dihydro-2H-benzo[b][1,4]oxazin-7-yl)-3-(1H-indol-6-yl)urea]	> 10 µM
O=C1CSc2ccc(NC(=O)Nc3ccc4cc[nH]c4c3)cc2N1 [Example 195, 1-(1H-indol-6-yl)-3-(3-oxo-3,4-dihydro-2H-benzo[b][1, 4]thiazin-6-yl)urea]	> 10 µM

Structure (SMILES)	IC50
O=C(Nc1ccc2c(c1)N(C(C(=O)NC1CC1)c1ccccc1)CCO2)Nc1ccc2cc[nH]c2c1 (centres unmarked) [Example 190, 2-(6-(3-(1H-indol-6-yl)ureido)-2,3-dihydro-4H-benzo[b][1,4]oxazin-4-yl)-N-cyclopropyl-2-phenylacetamide]	1 to 10 µM
N#CC1COc2ccc(NC(=O)Nc3ccc4cc[nH]c4c3)cc2N1Cc1ccccc1 (centres unmarked) [Example 81, 1-(4-Benzyl-3-cyano-3,4-dihydro-2H-benzo[b][1,4]oxazin-6-yl)-3-(1H-indol-6-yl)urea]	1 to 10 µM
O=C(Nc1ccc2c(c1)OCC(=O)N2Cc1nnco1)Nc1ccc2cc[nH]c2c1 [Example 151, 1-(4-((1,3,4′-oxadiazol-2-yl)methyl)-3-oxo-3,4-dihydro-2H-benzo[b][1, 4]oxazin-7-yl)-3-(1H-indol-6-yl)urea]	> 10 µM
O=C(Nc1ccc2c(c1)OCC(=O)N2Cc1cnccn1)Nc1ccc2cc[nH]c2c1 [Example 154, 1-(1H-indol-6-yl)-3-(3-oxo-4-(pyrazin-2-ylmethyl)-3,4-dihydro-2H-benzo[b][i, 4]oxazin-7-yl)urea]	> 10 µM
O=C(Nc1ccc2c(c1)OCC(=O)N2Cc1ccc(SC(F)(F)F)cc1)Nc1ccc2cc[nH]c2c1 [Example 106, 1-(1H-indol-6-yl)-3-(3-oxo-4-(4-((trifluoromethyl)thio)benzyl)-3,4-dihydro-2H-benzo[b][1,4]oxazin-7-yl)urea]	≤ 1 µM
O=C(Nc1ccc2c(c1)N(Cc1ccccc1)C(CCO)CO2)Nc1ccc2cc[nH]c2c1 (centres unmarked) [Example 80, 1-(4-Benzyl-3-(2-hydroxyethyl)-3-,4-dihydro-2H-benzo[b][1,4]oxazin-6-yl)-3-(1H-indol-6-yl)urea]	1 to 10 µM
N#CCC1Sc2ccc(NC(=O)Nc3ccc4cc[nH]c4c3)cc2N(Cc2ccccc2)C1=O (centres unmarked) [Example 77]	1 to 10 µM
O=C(Nc1ccc2c(c1)OCC(=O)N2Cc1cc(Cl)cc(C(F)(F)F)c1)Nc1ccc2cc[nH]c2c1 [Example 99, l-(4-(3-chloro-5-(trifluoromethyl)benzyl)-3-oxo-3,4-dihydro-2H-benzo[b][1, 4]oxazin-7-yl)-3-(1H-indol-6-yl)urea]	≤ 1 µM
CC(C)(C)c1nc(CN2C(=O)COc3cc(NC(=O)Nc4ccc5cc[nH]c5c4)ccc32)no1 [Example 134, l-(4-((5-(tert-butyl)-1,2,4-oxadiazol-3-yl)methyl)-3-oxo-3,4-dihydro-2H-benzo[b][, 4]oxazin-7-yl)-3-(1H-indol-6-yl)urea]	1 to 10 µM
NC(=O)CC1Sc2ccc(NC(=O)Nc3ccc4cc[nH]c4c3)cc2N(Cc2ccccc2)C1=O (centres unmarked) [Example 76, 2-(6-(3-(1H-Indol-6-yl)ureido)-4-benzyl-3-oxo-3,4-dihydro-2H-benzo[b][1,4]thiazin-2-yl)acetamide]	1 to 10 µM
Cn1ccc2ccc(NC(=O)Nc3ccc4c(c3)N(Cc3ccccc3)C(=O)CS4)cc21 [Example 27, 1-(4-benzyl-3-oxo-3,4-dihydro-2H-benzo[b] [1,4]thiazin-6-yl)-3-(1-methyl-1H-indol-6-yl)urea]	> 10 µM
NCC1COc2cc(NC(=O)Nc3ccc4cc[nH]c4c3)ccc2N1Cc1ccccc1 (centres unmarked) [Example 187, 1-(3-(aminomethyl)-4-benzyl-3,4-dihydro-2H-benzo[b][1,4]oxazin-7-yl)-3-(1H-indol-6-yl)urea]	1 to 10 µM
C=CCC1COc2ccc(NC(=O)Nc3ccc4cc[nH]c4c3)cc2N1Cc1ccccc1 (centres unmarked) [Example 78, 1-(3-Allyl-4-benzyl-3,4-dihydro-2H-benzo[b][1,4]oxazin-6-yl)-3-(1H-indol-6-yl)urea]	≤ 1 µM
O=C(Nc1ccc2c(c1)OCC(=O)N2Cc1ccccc1C(=O)O)Nc1ccc2cc[nH]c2c1 [Example 143, 2-((7-(3-(1H-indol-6-yl)ureido)-3-oxo-2,3-dihydro-4H-benzo[b][1,4]oxazin-4-yl)methyl)benzoic acid]	> 10 µM
N#Cc1ccc(CN2C(=O)COc3cc(NC(=O)Nc4ccc5cc[nH]c5c4)ccc32)c(F)c1 [Example 120, 1-(4-(4-cyano-2-fluorobenzyl)-3-oxo-3,4-dihydro-2H-benzo[b][1,4]oxazin-7-yl)-3-(1H-indol-6-yl)urea]	1 to 10 µM
CN1CCN(Cc2ccccc2)c2cc(NC(=O)Nc3ccc4cc[nH]c4c3)ccc21 [Example 73, 1-(4-Benzyl-1-methyl-1,2,3,4-tetrahydroquinoxalin-6-yl)-3-(1H-indol-6-yl)urea]	1 to 10 µM
O=C1CSc2ccc(-c3n[nH]c(-c4ccccc4)n3)cc2N1Cc1c(F)cccc1Cl [Example 44, 4-(2-Chloro-6-fluorobenzyl)-6-(5-phenyl-1H-1,2,4-triazol-3-yl)-2H-benzo[b][1,4]thiazin-3(4H)-one]	1 to 10 µM
O=C(Nc1ccc2c(c1)N(c1ccccc1)CCO2)Nc1ccc2cc[nH]c2c1 [Example 184, 1-(1H-indol-6-yl)-3-(4-phenyl-3,4-dihydro-2H-benzo[b][1,4]oxazin-6-yl)urea]	1 to 10 µM
O=C(Nc1ccc2c(c1)N(Cc1ccccc1)CCO2)Nc1ccc2cc[nH]c2n1 [Example 172, 1-(4-benzyl-3,4-dihydro-2H-benzo[b][1, 4]oxazin-6-yl)-3-(1H-pyrrolo[2,3-b]pyridin-6-yl)urea]	1 to 10 µM

Source: patent US20230124361A1, “SMALL MOLECULE STING ANTAGONISTS” (CURADEV PHARMA PVT. LTD., priority 2020, published 2023)
